Laboratory results as given in ChEMBL document CHEMBL1134889, “Clarification of mechanism of human sputum elastase inhibition by a new inhibitor, ONO-5046, using electrospray ionization mass spectrometry” (Bioorg Med Chem Lett, 2002).

Assays:
Cavia porcellus [1] = test: Percent inhibition effect of ONO-5046 on the increase of skin capillary permeability induced by HNE in guinea pigs in vivo on administration of 10 mg/Kg dose iv in guinea pig; assay type: functional
Cavia porcellus [2] = test: Percent inhibition effect of ONO-5046 on the increase of skin capillary permeability induced by HNE in guinea pigs in vivo on administration of 3 mg/Kg dose iv in guinea pig; assay type: functional

Structure (SMILES): CC(C)(C)C(=O)Oc1ccc(S(=O)(=O)Nc2ccccc2C(=O)NCC(=O)O)cc1
- inhibition in vivo at 10 mg/kg (Cavia porcellus [1]): 51.8%
- inhibition in vivo at 3 mg/kg (Cavia porcellus [2]): 31.7%
